The test concerns the target T1, Cbl-b (truncated variant, UniProt number Q13191) (Homo sapiens, UniProt Q13191).
T1 construct: made in house
Briefly: Cbl-b activity assay (TR-FRET, interaction of Cbl-b with UbcH5B-Ub). The format is biochemical. For orientation: In TR-FRET formats the signal depends on donor and acceptor labels being close together.

Setting [1] is: Biological Example 1A, low or high conditions not stated, read-out: IC50 values in the Cbl-b inhibition assay of Biological Example 1A.
[2] abbreviates: high conditions: 100 mM NaCl, 60 nM Src kinase, 12 nM Cbl-b, read-out: Cbl-b activity IC50.

Where two headings read alike, the source gives them in different places. A value given as a limit tells only on which side of the number the result lay.

T1 sequence (Q13191 36-427): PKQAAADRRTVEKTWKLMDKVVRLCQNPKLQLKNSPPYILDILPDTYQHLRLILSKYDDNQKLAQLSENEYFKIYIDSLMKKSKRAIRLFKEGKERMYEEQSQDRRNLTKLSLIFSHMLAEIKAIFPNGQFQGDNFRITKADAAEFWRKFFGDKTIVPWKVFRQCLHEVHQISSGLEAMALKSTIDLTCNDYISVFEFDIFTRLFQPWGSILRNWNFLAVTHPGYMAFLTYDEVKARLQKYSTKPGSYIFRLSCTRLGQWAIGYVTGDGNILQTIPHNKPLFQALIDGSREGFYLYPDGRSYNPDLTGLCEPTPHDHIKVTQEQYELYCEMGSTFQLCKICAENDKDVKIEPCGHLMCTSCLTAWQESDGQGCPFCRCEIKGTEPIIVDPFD

The IC50 is the midpoint of a concentration-inhibition curve. On to `C[C@H](Sc1nncn1C)c1cccc(-n2ncc(-c3cccc(C(N)=O)c3)n2)c1` [Example 95, (S)-3-(2-(3-(1-(4-methyl-4H-1,2,4-triazol-3-ylthio)ethyl)phenyl)-2H-1,2,3-triazol-4-yl)benzamide], for which the IC50 reads like this: under setting [1], 100 to 1000 nM; under setting [2], 100 to 1000 nM.

As to `C[C@H](Sc1nncn1C)c1cccc(-n2cc(-c3cccc(C(N)=O)c3)nn2)c1` [Example 96, (S)-3-(1-(3-(1-(4-methyl-4H-1,2,4-triazol-3-ylthio)ethyl)phenyl)-1H-1,2,3-triazol-4-yl)benzamide], the IC50 under setting [1] was 1000 to 5000 nM and the IC50 under setting [2] lay in the range of 1000 to 5000 nM.

Consider `C[C@H](Sc1nncn1C)c1cccc(-n2ncc(-c3cccc(C#N)c3)n2)c1` [Example 97, (S)-3-(2-(3-(1-(4-methyl-4H-1,2,4-triazol-3-ylthio)ethyl)phenyl)-2H-1,2,3-triazol-4-yl)benzonitrile], for which the IC50 by setting is: under setting [1], 1000 to 5000 nM; under setting [2], 1000 to 5000 nM.

With `C[C@H](Sc1nncn1C)c1cccc(-n2cc(-c3cccc(C#N)c3)nn2)c1` [Example 98, (S)-3-(1-(3-(1-(4-methyl-4H-1,2,4-triazol-3-ylthio)ethyl)phenyl)-1H-1,2,3-triazol-4-yl)benzonitrile], the IC50 under setting [1] is not below 5000 nM and the IC50 under setting [2] is not below 5000 nM.

Take `C[C@H](Sc1nncn1C)c1cccc(-n2ncc(-c3ccccc3)n2)c1` [Example 99, (S)-2-(3-(1-((4-methyl-4H-1,2,4-triazol-3-yl)thio)ethyl)phenyl)-4-phenyl-2H-1,2,3-triazole]: the IC50 under setting [1] was in the range of 100 to 1000 nM and the IC50 under setting [2] was 100 to 1000 nM.

`C[C@@H](Sc1nncn1C)c1cccc(-n2ncc(-c3ccccc3)n2)c1` [Example 100, (R)-2-(3-(1-((4-methyl-4H-1,2,4-triazol-3-yl)thio)ethyl)phenyl)-4-phenyl-2H-1,2,3-triazole]: the IC50 under setting [1] was not below 5000 nM and the IC50 under setting [2] was not below 5000 nM.

As for `CC(Sc1nncn1C)c1ccnc(-n2ncc(-c3ccccc3)n2)c1` (stereo not shown) [Example 101, 4-(1-((4-methyl-4H-1,2,4-triazol-3-yl)thio)ethyl)-2-(4-phenyl-2H-1,2,3-triazol-2-yl)pyridine], the IC50 under setting [1] is not below 5000 nM and the IC50 under setting [2] is not below 5000 nM.

Regarding `C[C@H](Sc1nncn1C)c1cccc(-c2cc(-c3ccccc3)n[nH]2)c1` [Example 102, (S)-4-methyl-3-((1-(3-(3-phenyl-1H-pyrazol-5-yl)phenyl)ethyl)thio)-4H-1,2,4-triazole], the half-maximal inhibitory concentration (IC50) under setting [1] was 100 to 1000 nM and the IC50 under setting [2] fell in the range of 100 to 1000 nM.

Take `C[C@@H](Sc1nncn1C)c1cccc(-c2cc(-c3ccccc3)n[nH]2)c1` [Example 103, (R)-4-methyl-3-((1-(3-(3-phenyl-1H-pyrazol-5-yl)phenyl)ethyl)thio)-4H-1,2,4-triazole]: the IC50 was not below 5000 nM under setting [1] and not below 5000 nM under setting [2].

As for `COc1cccc(-c2cc(-c3cccc(C(C)Sc4nncn4C)c3)[nH]n2)c1` (stereo not shown) [Example 104, 3-((1-(3-(3-(3-methoxyphenyl)-1H-pyrazol-5-yl)phenyl)ethyl)thio)-4-methyl-4H-1,2,4-triazole], the IC50 reads like this: under setting [1], 1000 to 5000 nM; under setting [2], 1000 to 5000 nM.

Consider `C[C@H](Cc1nncn1C)c1cccc(-c2cc(-c3ccccn3)n[nH]2)c1` [Example 105, (R)-2-(5-(3-(1-(4-methyl-4H-1,2,4-triazol-3-yl)propan-2-yl)phenyl)-1H-pyrazol-3-yl)pyridine], for which the IC50 under setting [2] fell in the range of 100 to 1000 nM.

In the case of `C[C@H](Cc1nncn1C)c1cccc(-c2cc(-c3ncccn3)n[nH]2)c1` [Example 106, (R)-2-(3-(3-(1-(4-methyl-4H-1,2,4-triazol-3-yl)propan-2-yl)phenyl)-1H-pyrazol-5-yl) pyrimidine], under setting [2], the IC50 lay in the range of 100 to 1000 nM.

With `C[C@H](Sc1nncn1C)c1cccc(-c2n[nH]c3ccccc23)c1` [Example 107, (S)-3-(3-(1-((4-methyl-4H-1,2,4-triazol-3-yl)thio)ethyl)phenyl)-1H-indazole], the IC50 under setting [2] was 100 to 1000 nM.

Take `C[C@@H](Sc1nncn1C)c1cccc(-c2n[nH]c3ccccc23)c1` [Example 108, (R)-3-(3-(1-((4-methyl-4H-1,2,4-triazol-3-yl)thio)ethyl)phenyl)-1H-indazole]: the IC50 lay in the range of 1000 to 5000 nM under setting [1] and 1000 to 5000 nM under setting [2].

As to `C[C@H](Cc1nncn1C)c1cccc(-c2n[nH]c3c(N4CCC(O)CC4)cc(C(F)(F)F)nc23)c1` [Example 109, (R)-1-(3-(3-(1-(4-methyl-4H-1,2,4-triazol-3-yl)propan-2-yl)phenyl)-5-(trifluoromethyl)-1H-pyrazolo[4,3-b]pyridin-7-yl)piperidin-4-ol], the IC50 under setting [2] is 100 to 1000 nM.

With `C[C@H](Cc1nncn1C)c1cccc(-c2n[nH]c3c(N4CC(O)C4)cc(C(F)(F)F)nc23)c1` [Example 110, (R)-1-(3-(3-(1-(4-methyl-4H-1,2,4-triazol-3-yl)propan-2-yl)phenyl)-5-(trifluoromethyl)-1H-pyrazolo[4,3-b]pyridin-7-yl)azetidin-3-ol], the IC50 under setting [2] lay within 100 to 1000 nM.

Turning to `C[C@H](Cc1nncn1C)c1cccc(-c2n[nH]c3c(N4CC[C@H](O)C4)cc(C(F)(F)F)nc23)c1` [Example 111, (S)-1-(3-(3-((R)-1-(4-methyl-4H-1,2,4-triazol-3-yl)propan-2-yl)phenyl)-5-(trifluoromethyl)-1H-pyrazolo[4,3-b]pyridin-7-yl)pyrrolidin-3-ol], the IC50 under setting [2] is 100 to 1000 nM.

On to `C[C@H](Cc1nncn1C)c1cccc(-c2n[nH]c3c(N4CC[C@@H](O)C4)cc(C(F)(F)F)nc23)c1` [Example 112, (R)-1-(3-(3-((R)-1-(4-methyl-4H-1,2,4-triazol-3-yl)propan-2-yl)phenyl)-5-(trifluoromethyl)-1H-pyrazolo[4,3-b]pyridin-7-yl)pyrrolidin-3-ol], for which, under setting [2], the IC50 lay in the range of 100 to 1000 nM.

`C[C@H](Cc1nncn1C)c1cccc(-c2n[nH]c3c(CN4CC[C@H](F)C4)cc(C(F)(F)F)nc23)c1` [Example 113, 3-[(2R)-2-[3-(7-[[(3S)-3-fluoropyrrolidin-1-yl]methyl]-5-(trifluoromethyl)-1H-pyrazolo[4,3-b]pyridin-3-yl)phenyl]propyl]-4-methyl-4H-1,2,4-triazole]: the IC50 by setting is: under setting [1], less than 100 nM; under setting [2], less than 100 nM.

`C[C@H](Cc1nncn1C)c1cccc(-c2n[nH]c3ccc(C(F)(F)F)nc23)c1` [Example 116, (R)-3-(3-(1-(4-methyl-4H-1,2,4-triazol-3-yl)propan-2-yl)phenyl)-5-(trifluoromethyl)-1H-pyrazolo[4,3-b]pyridine]: the IC50 runs as follows: under setting [1], 100 to 1000 nM; under setting [2], 100 to 1000 nM.

For `C[C@H](Cc1nncn1C)c1cccc(-c2n[nH]c3c(N4CCC(O)CC4)ccnc23)c1` [Example 117, (R)-1-(3-(3-(1-(4-methyl-4H-1,2,4-triazol-3-yl)propan-2-yl)phenyl)-1H-pyrazolo[4,3-b]pyridin-7-yl)piperidin-4-ol], the IC50 under setting [2] fell in the range of 1000 to 5000 nM.

For `C[C@H](Cc1nncn1C)c1cccc(-c2n[nH]c3cccnc23)c1` [Example 118, (R)-3-(3-(1-(4-methyl-4H-1,2,4-triazol-3-yl)propan-2-yl)phenyl)-1H-pyrazolo[4,3-b]pyridine], the IC50 under setting [2] fell in the range of 1000 to 5000 nM.

Take `Cc1ccc2[nH]nc(-c3cccc([C@H](C)Cc4nncn4C)c3)c2n1` [Example 119, (R)-5-methyl-3-(3-(1-(4-methyl-4H-1,2,4-triazol-3-yl)propan-2-yl)phenyl)-1H-pyrazolo [4,3-b]pyridine]: the IC50 under setting [2] lay within 1000 to 5000 nM.

For `C[C@H](Cc1nncn1C)c1cccc(-c2n[nH]c3cc(C4CCC4)cnc23)c1` [Example 120, (R)-6-cyclobutyl-3-(3-(1-(4-methyl-4H-1,2,4-triazol-3-yl)propan-2-yl)phenyl)-1H-pyrazolo[4,3-b]pyridine], under setting [2], the half-inhibitory concentration (IC50) lay within 1000 to 5000 nM.

As for `C[C@H](Sc1nncn1C)c1ccnc(NC(=O)Nc2ccccn2)c1` [Example 121, (S)-1-(4-(1-((4-methyl-4H-1,2,4-triazol-3-yl)thio)ethyl)pyridin-2-yl)-3-(pyridin-2-yl)urea], the IC50 under setting [2] is not below 5000 nM.

`CC(Sc1nncn1C)c1cccc(C(=O)Nc2cc3ccccc3cn2)c1` (stereo not shown) [Example 122, N-(isoquinolin-3-yl)-3-(1-((4-methyl-4H-1,2,4-triazol-3-yl)thio)ethyl)benzamide]: the IC50 by setting is: under setting [1], less than 100 nM; (low conditions: 50 mM NaCl, 30 nM Src kinase, 12 nM Cbl-b, read-out: Cbl-b activity IC50) less than 100 nM.

In the case of `CC1CN(C(=O)Nc2cccc([C@H](C)Sc3nncn3C)c2)CC(=O)N1C` (stereo partly drawn) [Example 123, 3,4-dimethyl-N-(3-((S)-1-((4-methyl-4H-1,2,4-triazol-3-yl)thio)ethyl)phenyl)-5-oxopiperazine-1-carboxamide], under setting [2], the IC50 is not below 5000 nM.

Turning to `C[C@H](Sc1nncn1C)c1cccc(NC(=O)N2CCCCC2)c1` [Example 124, (S)—N-(3-(1-((4-methyl-4H-1,2,4-triazol-3-yl)thio)ethyl)phenyl)piperidine-1-carboxamide], under setting [2], the IC50 is not below 5000 nM.

With `C[C@H](Sc1nncn1C)c1cccc(NC(=O)N2CCc3nocc3C2)c1` [Example 125, (S)—N-(3-(1-((4-methyl-4H-1,2,4-triazol-3-yl)thio)ethyl)phenyl)-6,7-dihydroisoxazolo[4,3-c]pyridine-5(4H)-carboxamide], the IC50 under setting [2] was not below 5000 nM.

On to `C[C@H](Sc1nncn1C)c1cccc(NC(=O)N2CCC23CCN(C)CC3)c1` [Example 126, (S)-7-methyl-N-(3-(1-((4-methyl-4H-1,2,4-triazol-3-yl)thio)ethyl)phenyl)-1,7-diazaspiro[3.5]nonane-1-carboxamide], for which the IC50 under setting [2] was not below 5000 nM.

Take `C[C@H](Sc1nncn1C)c1cccc(NC(=O)N2CCC(c3ccccc3)C2)c1` (stereo partly drawn) [Example 127, N-(3-((S)-1-((4-methyl-4H-1,2,4-triazol-3-yl)thio)ethyl)phenyl)-3-phenylpyrrolidine-1-carboxamide]: under setting [2], the IC50 is not below 5000 nM.

In the case of `C[C@H](Sc1nncn1C)c1cccc(NC(=O)N2CCOCC2)c1` [Example 128, N-[3-[(1S)-1-[(4-methyl-4H-1,2,4-triazol-3-yl)sulfanyl]ethyl]phenyl]morpholine-4-carboxamide], the IC50 under setting [2] is not below 5000 nM.

(Values after patent US12653809B2, “Urea, amide, and substituted heteroaryl compounds for CBL-B inhibition” (Nurix Therapeutics, Inc., priority 2019, dated 2026).)
